# Measured values published in US10501449B2 (priority 2018, dated 2019).
# Key:
# hERG channels = hERG channels (Homo sapiens (Human), UniProt Q12809); assay: hERG Manual Patch Clamp Assay; assay type: cell-based; settings: HEK 293 cells stably expressing hERG channels; for inhibition at 1 µM: human, pH 7.4, 1 uM, read-out: hERG EP % Inh @ 1 uM
# hROMK (human Kir1.1) = hROMK (human Kir1.1) (Homo sapiens (Human), UniProt P48048); assay: cell-based; settings: CHO T-Rex hROMK stable cell line; thallium flux; 10-point concentration response curve; read-out: Human ROMK Th Flux IC50
# Chain of hROMK (human Kir1.1) (P48048 whole entry): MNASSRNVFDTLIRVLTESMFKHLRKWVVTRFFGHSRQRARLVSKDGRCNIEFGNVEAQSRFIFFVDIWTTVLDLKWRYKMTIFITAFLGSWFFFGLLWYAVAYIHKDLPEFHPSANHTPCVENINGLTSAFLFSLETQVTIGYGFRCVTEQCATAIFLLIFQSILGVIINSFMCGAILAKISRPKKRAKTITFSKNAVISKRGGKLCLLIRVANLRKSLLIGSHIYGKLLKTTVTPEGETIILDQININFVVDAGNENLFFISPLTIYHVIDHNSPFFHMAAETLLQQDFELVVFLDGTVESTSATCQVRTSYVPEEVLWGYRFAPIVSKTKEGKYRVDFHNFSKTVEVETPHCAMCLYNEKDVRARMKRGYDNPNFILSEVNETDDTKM
# Chain of hERG channels (Q12809 whole entry): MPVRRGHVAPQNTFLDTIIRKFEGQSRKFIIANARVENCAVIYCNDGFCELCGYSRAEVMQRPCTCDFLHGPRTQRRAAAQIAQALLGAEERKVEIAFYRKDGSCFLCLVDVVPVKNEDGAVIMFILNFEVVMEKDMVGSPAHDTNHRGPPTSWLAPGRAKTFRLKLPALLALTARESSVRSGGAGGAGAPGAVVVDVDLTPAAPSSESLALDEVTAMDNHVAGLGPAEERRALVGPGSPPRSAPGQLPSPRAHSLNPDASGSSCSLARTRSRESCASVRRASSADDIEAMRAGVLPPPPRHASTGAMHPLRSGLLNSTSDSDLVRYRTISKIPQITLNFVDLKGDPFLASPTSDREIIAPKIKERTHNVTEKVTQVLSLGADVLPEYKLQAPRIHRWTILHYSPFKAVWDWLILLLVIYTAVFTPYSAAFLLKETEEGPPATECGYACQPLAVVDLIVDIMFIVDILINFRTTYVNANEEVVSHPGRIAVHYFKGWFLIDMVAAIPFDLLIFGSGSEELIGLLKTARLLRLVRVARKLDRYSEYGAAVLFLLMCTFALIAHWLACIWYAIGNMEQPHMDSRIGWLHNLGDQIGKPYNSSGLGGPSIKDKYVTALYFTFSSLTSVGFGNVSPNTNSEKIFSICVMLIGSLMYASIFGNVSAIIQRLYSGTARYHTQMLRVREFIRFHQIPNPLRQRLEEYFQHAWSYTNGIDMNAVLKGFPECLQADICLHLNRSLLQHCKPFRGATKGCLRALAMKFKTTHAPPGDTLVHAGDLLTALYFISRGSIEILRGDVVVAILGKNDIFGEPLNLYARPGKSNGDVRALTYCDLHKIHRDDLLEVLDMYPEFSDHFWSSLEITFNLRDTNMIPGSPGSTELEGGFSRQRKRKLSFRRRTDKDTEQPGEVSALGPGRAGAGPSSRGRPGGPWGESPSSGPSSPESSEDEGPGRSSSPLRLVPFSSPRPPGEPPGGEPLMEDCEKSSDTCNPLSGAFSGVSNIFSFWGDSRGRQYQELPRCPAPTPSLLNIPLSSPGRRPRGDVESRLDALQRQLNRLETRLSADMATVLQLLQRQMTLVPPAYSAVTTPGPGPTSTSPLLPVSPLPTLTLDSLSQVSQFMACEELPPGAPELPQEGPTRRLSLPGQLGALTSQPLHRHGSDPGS
smiles,measurement,setting,value
"Cc1cc(-n2cc(CN3CC(CO)NC(c4ccc5c(c4C)COC5=O)C3)nn2)ncc1C#N (single isomer, unassigned) [Example 88-III, 6-(4-((3-(hydroxymethyl)-5-(4-methyl-1-oxo-1,3-dihydroisobenzofur-an-5-yl)piperazin-1-yl)methyl)-1H-1,2,3-triazol-1-yl)-4-methylnicotinonitrile]",inhibition at 1 µM,hERG channels,8.3%
same,IC50,hROMK (human Kir1.1),36 nM
"Cc1cc(-n2cc(CN3CCC(C)(O)C(c4ccc5c(c4C)COC5=O)C3)cn2)ncc1C#N (single isomer, unassigned) [Example 114-I, 6-(4-((4-hydroxy-4-methyl-3-(4-methyl-1-oxo-1,3-dihydroisobenzofuran-5-yl)piperidin-1-yl)methyl)-1H-pyrazol-1-yl)-4-methylnicotinonitrile]",inhibition at 1 µM,hERG channels,4.2%
same,IC50,hROMK (human Kir1.1),32 nM
"Cc1cc(-n2cc(CN3CC(c4ccc5c(c4C)COC5=O)NCC3CO)cn2)ncc1C#N (single isomer, unassigned) [Example 123-I, 6-(4-((2-(hydroxymethyl)-5-(4-methyl-1-oxo-1,3-dihydroisobenzofuran-5-yl)piperazin-1-yl)methyl)-1H-pyrazol-1-yl)-4-methylnicotinonitrile]",inhibition at 1 µM,hERG channels,7.2%
same,IC50,hROMK (human Kir1.1),74 nM
"COc1cc(N2CCC(CN3CCN[C@H](c4ccc5c(c4C)COC5=O)C3)C2)ncc1C#N (single isomer, unassigned) [Example 155-I]",hERG EP % Inh @ 1 uM,hERG channels; 1 uM,26%
same,IC50,hROMK (human Kir1.1),11 nM
"Cc1cc(N2CCC(CN3CCN[C@H](c4ccc5c(c4C)COC5=O)C3)C2)ncc1C#N (single isomer, unassigned) [Example 156-I]",inhibition at 1 µM,hERG channels,51%
same,IC50,hROMK (human Kir1.1),14 nM
"Cc1cc(N2CC(CN3CCN[C@H](c4ccc5c(c4C)COC5=O)C3)CC2=O)ncc1C#N (single isomer, unassigned) [Example 158-I]",inhibition at 1 µM,hERG channels,20%
same,IC50,hROMK (human Kir1.1),36 nM
"COc1cc(N2CC(CN3C[C@@H](c4ccc5c(c4C)COC5=O)N[C@@H](C)C3)CC2=O)ncc1C#N (single isomer, unassigned) [Example 170-I]",inhibition at 1 µM,hERG channels,26%
same,IC50,hROMK (human Kir1.1),39 nM
"Cc1cc(-n2cc(CN3CCCC(c4ccc5c(c4C)COC5=O)C3)cn2)ncc1C#N (single isomer, unassigned) [Example 197-I, 4-methyl-6-(4-((3-(4-methyl-1-oxo-1,3-dihydroisobenzofuran-5-yl)piperidin-1-yl)methyl)-1H-pyraozl-1-yl)nicotinonitrile]",inhibition at 1 µM,hERG channels,75%
same,IC50,hROMK (human Kir1.1),15 nM
"Cc1cc(-n2cc(CN3CC(O)CC(c4ccc5c(c4C)COC5=O)C3)cn2)ncc1C#N (single isomer, unassigned) [Example 199-IV, 6-(4-((3-hydroxy-5-(4-methyl-1-oxo-1,3-dihydroisobenzofuran-5-yl)piperidin-1-yl)methyl)-1H-pyrazol-1-yl)-4-methylnicotinonitrile]",inhibition at 1 µM,hERG channels,22%
same,IC50,hROMK (human Kir1.1),16 nM
"COC1CC(c2ccc3c(c2C)COC3=O)CN(Cc2cnn(-c3cc(C)c(C#N)cn3)c2)C1 (single isomer, unassigned) [Example 200-II, 6-(4-((3-methoxy-5-(4-methyl-1-oxo-1,3-dihydroisobenzofuran-5-yl)piperidin-1-yl)methyl)-1H-pyrazol-1-yl)-4-methylnicotinonitrile]",inhibition at 1 µM,hERG channels,27%
same,IC50,hROMK (human Kir1.1),64 nM
"Cc1cc(-n2cc(CN3CC(F)CC(c4ccc5c(c4C)COC5=O)C3)nn2)ncc1C#N (single isomer, unassigned) [Example 203-I, 6-(4-((3-fluoro-5-(4-methyl-1-oxo-1,3-dihydroisobenzofuran-5-yl)piperidin-1-yl)methyl)-1H-1,2,3-triaozl-1-yl)-4-methylnicotinonitrile]",inhibition at 1 µM,hERG channels,16%
same,IC50,hROMK (human Kir1.1),43 nM
"Cc1cc(-n2cc(CN3CC(c4ccc5c(c4C)COC5=O)NC(C(F)F)C3)cn2)ncc1C#N (single isomer, unassigned) [Example 205-I, 6-(4-((3-(difluoromethyl)-5-(4-methyl-1-oxo-1,3-dihydroisobenzofuran-5-yl)piperazin-1-yl)methyl)-1H-pyrazol-1-yl)-4-methylnicotinonitrile]",inhibition at 1 µM,hERG channels,10%
same,IC50,hROMK (human Kir1.1),71 nM
"Cc1cc(-n2cc(CN3CC(O)C(c4ccc5c(c4C)COC5=O)C3)cn2)ncc1C#N (single isomer, unassigned) [Example 211-I, 6-(4-((3-hydroxy-4-(4-methyl-1-oxo-1,3-dihydroisobenzofuran-5-yl)pyrrolidin-1-yl)methyl)-1H-pyrazol-1-yl)-4-methylnicotinonitrile]",inhibition at 1 µM,hERG channels,58%
same,IC50,hROMK (human Kir1.1),30 nM
"Cc1cc(-n2cc(CN3CC(CO)CC(c4ccc5c(c4C)COC5=O)C3)cn2)ncc1C#N (single isomer, unassigned) [Example 261-II, 6-(4-((3-(hydroxymethyl)-5-(4-methyl-1-oxo-1,3-dihydroisobenzofuran-5-yl)piperidin-1-yl)methyl)-1H-pyrazol-1-yl)-4-methylnicotinonitrile]",inhibition at 1 µM,hERG channels,44%
same,IC50,hROMK (human Kir1.1),27 nM
"Cc1cc(-c2cc(CN3CC(c4ccc5c(c4C)COC5=O)NC(C)(C)C3)on2)ncc1C#N (single isomer, unassigned) [Example 268-I, 6-(5-((3,3-dimethyl-5-(4-methyl-1-oxo-1,3-dihydroisobenzofuran-5-yl)piperazin-1-yl)methyl)isoxazol-3-yl)-4-methylnicotinonitrile]",inhibition at 1 µM,hERG channels,9%
same,IC50,hROMK (human Kir1.1),20 nM
"COc1c(CN2CCN[C@H](c3ccc4c(c3C)COC4=O)C2)cnn1-c1cc(C)c(C#N)cn1 [Example 6-I, (R)-6-(5-methoxy-4-((3-(4-methyl-1-oxo-1,3-dihydroisobenzofuran-5-yl)piperazin-1-yl)methyl)-1H-pyrazol-1-yl)-4-methylnicotinonitrile]",inhibition at 1 µM,hERG channels,38%
same,IC50,hROMK (human Kir1.1),40 nM
"Cc1cc(-n2cc(CN3C[C@@H](c4ccc5c(c4C)COC5=O)OC3=O)cn2)ncc1C#N [Example 9-I, (R)-4-methyl-6-(4-((5-(4-methyl-1-oxo-1,3-dihydroisobenzofuran-5-yl)-2-oxooxazolidin-3-yl)methyl)-1H-pyrazol-1-yl)nicotinonitrile]",inhibition at 1 µM,hERG channels,47%
same,IC50,hROMK (human Kir1.1),44 nM
"COc1cc(-n2cc(CCN3CCO[C@H](c4ccc5c(c4C)COC5=O)C3)cn2)ncc1C#N [Example 11-I, (R)-4-methoxy-6-(4-(2-(2-(4-methyl-1-oxo-1,3-dihydroisobenzofuran-5-yl)morpholino)ethyl)-1H-pyrazol-1-yl)nicotinonitrile]",inhibition at 1 µM,hERG channels,40%
same,IC50,hROMK (human Kir1.1),30 nM
"Cc1c([C@@H]2CN(Cc3cnc(-n4cnc(C#N)c4)s3)CCN2)ccc2c1COC2=O [Example 21-I, (R)-1-(5-((3-(4-methyl-1-oxo-1,3-dihydroisobenzofuran-5-yl)piperazin-1-yl)methyl)thiazol-2-yl)-1H-imidazole-4-carbonitrile]",inhibition at 1 µM,hERG channels,8.5%
same,IC50,hROMK (human Kir1.1),93 nM
"Cc1c([C@@H]2CN(Cc3cnn(-c4ccc5oc(=O)n(C)c5c4)c3)CCO2)ccc2c1COC2=O [Example 25-I, (R)-3-methyl-5-(4-((2-(4-methyl-1-oxo-1,3-dihydroisobenzofuran-5-yl)morpholino)methyl)-1H-pyrazol-1-yl) benzo[d]oxazol-2(3H)-one]",inhibition at 1 µM,hERG channels,8.7%
same,IC50,hROMK (human Kir1.1),51 nM
"COc1c(CN2CCO[C@H](c3ccc4c(c3C)COC4=O)C2)cnn1-c1cc(C)c(C#N)cn1 [Example 26-I, (R)-6-(5-methoxy-4-((2-(4-methyl-1-oxo-1,3-dihydroisobenzofuran-5-yl)morpholino)methyl)-1H-pyrazol-1-yl)-4-methylnicotinonitrile]",inhibition at 1 µM,hERG channels,20%
same,IC50,hROMK (human Kir1.1),69 nM
"COc1cc(-n2cnc(CN3CCO[C@H](c4ccc5c(c4C)COC5=O)C3)c2)ncc1C#N [Example 27-I, (R)-4-methoxy-6-(4-((2-(4-methyl-1-oxo-1,3-dihydroisobenzofuran-5-yl)morpholino)methyl)-1H-imidazol-1-yl) nicotinonitrile]",inhibition at 1 µM,hERG channels,11%
same,IC50,hROMK (human Kir1.1),32 nM
"Cc1c([C@@H]2CN(Cc3cn(-c4ccc(C#N)cn4)cn3)CCO2)ccc2c1COC2=O [Example 28-I, (R)-6-(4-((2-(4-methyl-1-oxo-1,3-dihydroiso-benzofuran-5-yl)morpho-lino)methyl)-1H-imidazol-1-yl)nicotino-nitrile]",inhibition at 1 µM,hERG channels,15%
same,IC50,hROMK (human Kir1.1),85 nM
"COc1cc(-c2ncc(CN3CCO[C@H](c4ccc5c(c4C)COC5=O)C3)s2)ncc1C#N [Example 32-I, (R)-4-methoxy-6-(5-((2-(4-methyl-1-oxo-1,3-dihydroisobenzofuran-5-yl)morpholino)methyl)thiazol-2-yl)nicotino-nitrile]",inhibition at 1 µM,hERG channels,6.2%
same,IC50,hROMK (human Kir1.1),24 nM
"COc1cc(-c2ccc(CN3CCO[C@H](c4ccc5c(c4C)COC5=O)C3)cn2)ncc1C#N [Example 35-I, (R)-4-methoxy-5′-((2-(4-methyl-1-oxo-1,3-di-hydroisobenzofuran-5-yl)morpholino)methyl)-[2,2′-bipyridine]-5-carbonitrile]",inhibition at 1 µM,hERG channels,20%
same,IC50,hROMK (human Kir1.1),120 nM
"Cc1c([C@@H]2CN(Cc3ccc(-n4cnc(C#N)c4)nc3)CCO2)ccc2c1COC2=O [Example 37-I, (R)-1-(5-((2-(4-methyl-1-oxo-1,3-dihydroiso-benzofuran-5-yl)morpho-lino)methyl)pyridin-2-yl)-1H-imidazole-4-carbonitrile]",inhibition at 1 µM,hERG channels,6.2%
same,IC50,hROMK (human Kir1.1),16 nM
"Cc1c([C@@H]2CN(Cc3cnn(-c4ccc(C#N)cc4)c3)CCO2)ccc2c1COC2=O [Example 40-I, (R)-4-(4-((2-(4-methyl-1-oxo-1,3-dihydroiso-benzofuran-5-yl)morpho-lino)methyl)-1H-pyrazol-1-yl)benzonitrile]",inhibition at 1 µM,hERG channels,54%
same,IC50,hROMK (human Kir1.1),27 nM
"Cc1cc(-n2cc(CN3CCO[C@H](c4ccc5c(c4C)COC5=O)C3)cn2)ccc1C#N [Example 46-I, (R)-2-methyl-4-(4-((2-(4-methyl-1-oxo-1,3-dihydroisobenzofuran-5-yl)morpholino)methyl)-1H-pyrazol-1-yl) benzonitrile]",inhibition at 1 µM,hERG channels,43%
same,IC50,hROMK (human Kir1.1),26 nM
